This is an account of results in ChEMBL document CHEMBL2390851, “Synthesis and preliminary in vitro biological evaluation of 7α-testosterone-chlorambucil hybrid designed for the treatment of prostate cancer” (Eur J Med Chem, 2013).

Holding throughout (format): functional, cell-based
In one experiment the test system is LNCaP. Briefly: Cytotoxicity against human LNCAP cells expressing androgen receptor after 72 hrs by MTT assay.
For experiment [1], the system named is PC-3. Briefly: Cytotoxicity against androgen receptor deficient human PC3 cells at 160 uM after 72 hrs by MTT assay.
Experiment [2] deals with PC-3. Briefly: Cytotoxicity against androgen receptor deficient human PC3 cells after 72 hrs by MTT assay. To be noted: PC-3, 72 h. (In general: Tetrazolium dyes change colour on reduction, which living cells bring about.)

The source made the active and inactive calls. The rule behind the calls is not given here.

For `C[C@]12CC[C@H]3[C@@H]([C@H](C/C=C/COC(=O)CCCc4ccc(N(CCCl)CCCl)cc4)CC4=CC(=O)CC[C@@]43C)[C@@H]1CC[C@@H]2O` (mixture of isomers), in the experiment with LNCaP, the IC50 (commonly the concentration needed to halve the response being measured) is 101 µM. In the experiment on PC-3 [1], the result was inactive.
As for `O=C(O)CCCc1ccc(N(CCCl)CCCl)cc1` [CHLORAMBUCIL], the IC50 in the experiment with LNCaP is 124 µM; in the experiment on PC-3 [2], 131 µM.
